# In US20200131669A1, “CYCLIC PEPTIDE COMPOUND HAVING HIGH MEMBRANE PERMEABILITY, AND LIBRARY CONTAINING SAME” (Chugai Seiyaku Kabushiki Kaisha, priority 2017, published 2020):
# Starred links: 1 amine or outer side, 2 acyl side, 3 side chain; linkers in the order of their positions; H or OH if unused. Positions of bridges follow the written chain, without caps; N, C: chain ends. Non-standard residues stand in square brackets, D forms with d. Residues, ends and D or L forms follow the SMILES beside them. *: point of attachment. Glu(NHSO2Me) = CS(=O)(=O)NC(=O)CC[C@H](N)C(=O)O; Phe(4-CF3) = N[C@@H](Cc1ccc(C(F)(F)F)cc1)C(=O)O; X12 = CCCC[C@@H](O)[C@H](N[*:1])C(=O)[*:2]; NMeW = CN[C@@H](Cc1c[nH]c2ccccc12)C(=O)O; NMehPhe = CN[C@@H](CCc1ccccc1)C(=O)O; Hyp = O=C(O)[C@@H]1C[C@@H](O)CN1; NMeF = CN[C@@H](Cc1ccccc1)C(=O)O; NMeGABA = CN(CCCC(=O)[*:2])[*:1]; NMeI = CC[C@H](C)[C@H](NC)C(=O)O; hPhe = N[C@@H](CCc1ccccc1)C(=O)O; NMeD = CN[C@@H](CC(=O)O)C(=O)O; NMeL = CN[C@@H](CC(C)C)C(=O)O; NMeV = CN[C@H](C(=O)O)C(C)C; NMeAbu = CC[C@H](NC)C(=O)O; NPentylGly = CCCCCNCC(=O)O; NMeS = CN[C@@H](CO)C(=O)O; NMeA = CN[C@@H](C)C(=O)O; Piperidide = C1CCN(*)CC1; dNMeA = CN[C@H](C)C(=O)O; Abu = CC[C@H](N)C(=O)O; NBuGly = CCCCNCC(=O)O; Isopentyl = CC(C)CC*; Sar = CNCC(=O)O; tBu = CC(C)(C)*; CHF2 = FC(F)*
# Test: Caco-2 membrane permeability, improved method as used in the following Examples (96-well, 20 to 24 h preincubation)
# Assay type: in vitro ADME
# Conditions: human, Caco-2, Caco-2
# Experimental: In the following Examples, membrane permeability was measured in accordance with the improved method established as described above. Specifically, Caco-2 cells were cultured on a 96-well Transwell for three weeks, after which DMEM+FaSSIF (1% DMSO)+compound were added to the apical side and DMEM was added to the basal side, and the cells were preincubated at 5% CO2, 37° C., and 80 rpm for 20 to 24 hours. Following the preincubation, measurement of membrane permeability was initiated by removing the preincubation solution on the apical and basal sides by suction, washing the membrane, and adding FaSSIF/HBSS buffer (1% DMSO) (pH 6.0) containing the compound to the apical side and HBSS buffer (4% BSA) (pH 7.4) to the basal side. Each well was shaken at 5% CO2, 37° C., and 80 rpm, and 180 minutes after the initiation, the sample on the basal side was collected and the permeation amount was measured by LC/MS. The membrane permeability coefficient (Papp) was calculated from the permeation amount. Herein, the terms “Caco-2 (cm/sec)” in the columns in the tables and “Papp (cm/sec)” are used in the same meaning.
row,SMILES,Papp A→B at 180 min [×10⁻⁶ cm/s]
1,CCCCN1CC(=O)N(C)[C@@H](CC(C)C)C(=O)N[C@@H](COC(C)(C)C)C(=O)N(C)[C@@H](Cc2ccccc2)C(=O)N(C)[C@@H](C(C)C)C(=O)N[C@H](C(=O)N2CCCCC2)CC(=O)N[C@H](C(C)C)C(=O)N(C)[C@@H](Cc2ccccc2)C(=O)N[C@@H](CCC(=O)NS(C)(=O)=O)C(=O)N(C)[C@@H](CC(C)C)C(=O)N[C@@H](CC(C)C)C1=O [pd67] ([dV][NMeF][Glu(NHSO2Me)][NMeL]L[NBuGly][NMeL]S(tBu)[NMeF][NMeV]D-Piperidide; lactam N-11),0.06
2,CCCCCN1CC(=O)N[C@@H]([C@@H](C)O)C(=O)N(C)CC(=O)N(C)[C@@H](CC(C)C)C(=O)N[C@H](C(=O)N2CCCCC2)CC(=O)N(C)[C@@H](CC)C(=O)N[C@@H](CC(C)C)C(=O)N(C)[C@@H](CC(C)C)C(=O)N(C)[C@@H](Cc2ccccc2)C(=O)N[C@@H](CC)C(=O)N(C)[C@@H](Cc2ccccc2)C1=O [pd408] ([NMeAbu]L[NMeL][NMeF][Abu][NMeF][NPentylGly]T[Sar][NMeL]D-Piperidide; lactam N-11),1.8
3,CCO[C@@H]1C[C@H]2C(=O)N(C)[C@@H](CC(C)C)C(=O)N[C@@H](COC(C)(C)C)C(=O)N3CCC[C@H]3C(=O)N[C@@H]([C@@H](C)O)C(=O)N(C)[C@@H](CC(C)C)C(=O)N(C)[C@@H](CC(C)C)C(=O)N(C)[C@@H](CC(C)C)C(=O)N[C@H](C(=O)N3CCCCC3)CC(=O)N[C@H](CC(C)C)C(=O)N(C)[C@@H]([C@@H](C)CC)C(=O)N2C1 [pd384] ([dL][NMeI][Hyp](Et)[NMeL]S(tBu)PT[NMeL][NMeL][NMeL]D-Piperidide; lactam N-11),3.3
4,CC[C@H]1C(=O)N[C@@H]([C@@H](C)O)C(=O)N(C)CC(=O)N(C)[C@@H](CC(C)C)C(=O)N[C@@H](CC(C)C)C(=O)N(C)[C@@H](Cc2ccccc2)C(=O)N(C)[C@@H](CC(C)C)C(=O)N[C@H](C(=O)N2CCCCC2)CC(=O)N[C@H](C(C)C)C(=O)N(C)[C@@H](CCc2ccccc2)C(=O)N[C@@H](CC(C)C)C(=O)N1C [pd320] ([dV][NMehPhe]L[NMeAbu]T[Sar][NMeL]L[NMeF][NMeL]D-Piperidide; lactam N-11),1.7
5,CCCC[C@@H](O)[C@@H]1NC(=O)[C@H](CC(C)C)N(C)C(=O)[C@H](C)NC(=O)[C@H](Cc2ccccc2)N(C)C(=O)[C@@H](C(C)C)NC(=O)C[C@@H](C(=O)N2CCCCC2)NC(=O)[C@H](C)N(C)C(=O)[C@H](Cc2ccccc2)N(C)C(=O)[C@H](COC(C)(C)C)NC(=O)[C@H](CC(C)C)N(C)C(=O)CN(C)C1=O [pd467] ([dV][NMeF]A[NMeL][X12][Sar][NMeL]S(tBu)[NMeF][NMeA]D-Piperidide; lactam N-11),1.4
6,CC[C@H](C)[C@@H]1NC(=O)[C@H](CC(C)C)N(C)C(=O)CCCN(C)C(=O)C[C@@H](C(=O)N2CCCCC2)NC(=O)[C@H](CC(C)C)N(C)C(=O)[C@H](C)N(C)C(=O)[C@H]([C@@H](C)O)NC(=O)[C@H](CC(C)C)N(C)C(=O)[C@H](COCCC(C)C)NC(=O)[C@H](Cc2ccccc2)N(C)C(=O)[C@H](Cc2ccccc2)N(C)C1=O [pd302] ([NMeGABA][NMeL]I[NMeF][NMeF]S(Isopentyl)[NMeL]T[NMeA][NMeL]D-Piperidide; lactam N-11),1.4
7,CC(=O)NCCCC[C@@H]1NC(=O)[C@H](CC(C)C)N(C)C(=O)[C@H](CC(C)C)NC(=O)[C@H](Cc2ccccc2)N(C)C(=O)[C@@H](CC(C)C)NC(=O)C[C@@H](C(=O)N2CCCCC2)NC(=O)[C@H](C(C)C)N(C)C(=O)[C@H](Cc2ccccc2)N(C)C(=O)[C@H](COC(C)(C)C)NC(=O)[C@H](CC(C)C)N(C)C(=O)CN(C)C1=O [pd471] ([dL][NMeF]L[NMeL]K(Ac)[Sar][NMeL]S(tBu)[NMeF][NMeV]D-Piperidide; lactam N-11),2.1
8,CCCCN1CC(=O)N(C)[C@@H](C)C(=O)N[C@H](C(=O)N2CCCCC2)CC(=O)N(C)[C@@H](C)C(=O)N[C@@H](Cc2ccc(OC(F)F)cc2)C(=O)N(C)[C@@H](CC(C)C)C(=O)N(C)[C@@H](Cc2ccccc2)C(=O)N[C@@H](CC(C)C)C(=O)N(C)[C@@H](CC(C)C)C(=O)N(C)[C@@H]([C@@H](C)CC)C(=O)N[C@@H]([C@@H](C)O)C1=O [pd479] ([NMeA]Y(CHF2)[NMeL][NMeF]L[NMeL][NMeI]T[NBuGly][NMeA]D-Piperidide; lactam N-11),1

# Same assay, conditions: human, Caco-2, Caco-2 (cm/sec)
row,SMILES,Papp A→B at 180 min [×10⁻⁶ cm/s]
1,CC(C)C[C@H]1C(=O)N(C)[C@@H](Cc2ccccc2)C(=O)N(C)[C@@H](CC(C)C)C(=O)N[C@H](C(=O)N(C)[C@@H](Cc2ccccc2)C(=O)N[C@@H](Cc2ccccc2)C(=O)N2CCCCC2)CC(=O)N[C@@H](C(C)C)C(=O)N[C@@H](C)C(=O)N[C@@H]([C@@H](C)O)C(=O)N(C)[C@@H](C)C(=O)N[C@@H](Cc2ccccc2)C(=O)N1C [pd241] (VAT[NMeA]F[NMeL][NMeF][NMeL]D[NMeF]F-Piperidide; lactam N-9),0.058
2,CC(C)C[C@H]1C(=O)N(C)[C@@H](CC(C)C)C(=O)N(C)[C@@H](Cc2c[nH]c3ccccc23)C(=O)N[C@@H]([C@@H](C)O)C(=O)N(C)[C@@H](C)C(=O)N(C)[C@@H](CC(C)C)C(=O)N[C@H](C(=O)N2CCCCC2)CC(=O)N(C)[C@@H](C)C(=O)N(C)[C@@H](CC(C)C)C(=O)N(C)[C@@H](CC(C)C)C(=O)N[C@@H](C)C(=O)N1C [pd105] ([NMeA][NMeL][NMeL]A[NMeL][NMeL][NMeW]T[NMeA][NMeL]D-Piperidide; lactam N-11),0.28
3,CC[C@H](C)[C@@H]1NC(=O)[C@H](C(C)C)N(C)C(=O)[C@H](C)N(C)C(=O)[C@H]([C@@H](C)O)NC(=O)[C@H](CC(C)C)N(C)C(=O)[C@H](Cc2ccc(C(F)(F)F)cc2)NC(=O)[C@H](CC(C)C)N(C)C(=O)[C@@H](C)N(C)C(=O)C[C@@H](C(=O)N2CCCCC2)NC(=O)[C@H](CC(C)C)NC(=O)[C@@H]2CCCN2C1=O [pd133] ([dNMeA][NMeL][Phe(4-CF3)][NMeL]T[NMeA][NMeV]IPLD-Piperidide; lactam N-11),2.3
4,CC(C)C[C@H]1C(=O)N(C)[C@@H](CCc2ccccc2)C(=O)N[C@@H](COC(C)(C)C)C(=O)N(C)[C@@H](C)C(=O)N[C@H](C(=O)N2CCCCC2)CC(=O)N(C)[C@@H](C)C(=O)N(C)[C@@H](Cc2ccccc2)C(=O)N[C@@H](CCc2ccccc2)C(=O)N(C)[C@@H](CC(C)C)C(=O)N[C@@H]([C@@H](C)O)C(=O)N(C)CC(=O)N1C [pd184] ([NMeA][NMeF][hPhe][NMeL]T[Sar][NMeL][NMehPhe]S(tBu)[NMeA]D-Piperidide; lactam N-11),1.2
5,CC(C)C[C@H]1C(=O)N(C)[C@@H](Cc2ccccc2)C(=O)N(C)[C@@H](Cc2ccccc2)C(=O)N[C@@H]([C@@H](C)O)C(=O)N(C)[C@@H](C)C(=O)N(C)[C@@H](Cc2ccccc2)C(=O)N[C@H](C(=O)N2CCCCC2)CC(=O)N(C)[C@@H](C)C(=O)N(C)[C@@H](Cc2ccccc2)C(=O)N(C)[C@@H](CC(C)C)C(=O)N[C@@H](C(C)C)C(=O)N1C [pd233] ([NMeA][NMeF][NMeL]V[NMeL][NMeF][NMeF]T[NMeA][NMeF]D-Piperidide; lactam N-11),0.17
6,CC[C@H](C)[C@H]1C(=O)N[C@@H](Cc2ccc(O)cc2)C(=O)N(C)CC(=O)N(C)[C@@H](CC(C)C)C(=O)N[C@H](C(=O)N2CCCCC2)CC(=O)N(C)[C@@H](C)C(=O)N[C@@H](CC(C)C)C(=O)N(C)[C@@H](C)C(=O)N(C)[C@@H](Cc2ccccc2)C(=O)N[C@@H](C(C)C)C(=O)N(C)[C@@H](C)C(=O)N1C [pd116] ([NMeA]L[NMeA][NMeF]V[NMeA][NMeI]Y[Sar][NMeL]D-Piperidide; lactam N-11),0.14
7,CC(C)C[C@@H]1NC(=O)[C@H](CC(C)C)N(C)C(=O)[C@@H](C)NC(=O)C[C@@H](C(=O)N2CCCCC2)N(C)C(=O)[C@H](CC(C)C)N(C)C(=O)[C@H]([C@@H](C)O)NC(=O)[C@H](CC(C)C)N(C)C(=O)[C@H](Cc2ccc(C(F)(F)F)cc2)NC1=O [pd149] ([dA][NMeL]L[Phe(4-CF3)][NMeL]T[NMeL][NMeD]-Piperidide; lactam N-8),1.7
8,CC(C)C[C@H]1C(=O)N(C)[C@@H](Cc2ccccc2)C(=O)N[C@@H](COC(C)(C)C)C(=O)N(C)[C@@H](C)C(=O)N[C@H](C(=O)N2CCCCC2)CC(=O)N(C)[C@@H](C)C(=O)N(C)[C@@H](Cc2ccccc2)C(=O)N[C@@H](CCc2ccccc2)C(=O)N(C)[C@@H](CC(C)C)C(=O)N[C@@H]([C@@H](C)O)C(=O)N(C)CC(=O)N1C [pd183] ([NMeA][NMeF][hPhe][NMeL]T[Sar][NMeL][NMeF]S(tBu)[NMeA]D-Piperidide; lactam N-11),2.1

# Same assay, conditions: human; Papp, Caco-2 membrane permeability, improved method; read-out: Caco-2
row,SMILES,Papp A→B at 180 min [×10⁻⁶ cm/s]
1,CC(C)CCOC[C@H]1C(=O)N[C@@H]([C@@H](C)O)C(=O)N(C)CC(=O)N(C)[C@@H](CC(C)C)C(=O)N[C@H](C(=O)N2CCCCC2)CC(=O)N(C)[C@@H](C)C(=O)N[C@@H](CC(C)C)C(=O)N(C)[C@@H](CC(C)C)C(=O)N(C)[C@@H](Cc2ccccc2)C(=O)N[C@@H](CC(C)C)C(=O)N(C)[C@@H](Cc2ccccc2)C(=O)N1C [pd308] ([NMeA]L[NMeL][NMeF]L[NMeF][NMeS](Isopentyl)T[Sar][NMeL]D-Piperidide; lactam N-11),2.1
